This note sets out measurements from US20110053916A1 (Vertex Pharmaceuticals Incorporated, priority 2009, published 2011).

T1 sequence (P9WI81 whole entry): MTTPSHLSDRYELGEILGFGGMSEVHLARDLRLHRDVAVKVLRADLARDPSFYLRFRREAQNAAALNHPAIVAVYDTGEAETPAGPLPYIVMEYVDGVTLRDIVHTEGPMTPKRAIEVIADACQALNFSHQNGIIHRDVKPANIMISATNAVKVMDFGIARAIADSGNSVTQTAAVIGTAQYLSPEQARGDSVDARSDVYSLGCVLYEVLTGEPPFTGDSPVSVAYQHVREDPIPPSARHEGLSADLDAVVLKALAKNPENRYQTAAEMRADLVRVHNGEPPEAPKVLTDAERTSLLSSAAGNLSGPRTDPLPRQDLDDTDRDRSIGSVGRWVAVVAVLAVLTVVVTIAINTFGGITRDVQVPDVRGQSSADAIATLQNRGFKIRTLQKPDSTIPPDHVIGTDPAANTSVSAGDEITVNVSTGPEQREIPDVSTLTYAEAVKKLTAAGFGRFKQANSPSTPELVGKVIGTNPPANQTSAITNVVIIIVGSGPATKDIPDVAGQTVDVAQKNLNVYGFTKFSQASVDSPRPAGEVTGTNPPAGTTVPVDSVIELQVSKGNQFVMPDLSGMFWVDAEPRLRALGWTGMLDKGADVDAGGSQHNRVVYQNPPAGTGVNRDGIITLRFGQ

One test addresses T1, PknB (Mycobacterium tuberculosis, UniProt P9WI81).
T1 construct: made in house
As to the kind of experiment: biochemical. On the set-up: species or system M. tuberculosis. The conditions noted are these: 3 nM PknB, 6 uM GarA, 3 μM ATP, 30 min; competitive tight-binding fit; several symbols in a cell = repeat determinations.
`C[C@H](O)c1ccc(-c2ncc(Cl)c(Nc3cc(C4CC4)[nH]n3)n2)s1` [Compound 132, (S)-1-(5-(4-(5-cyclopropyl-1H-pyrazol-3-ylamino)-5-chloropyrimidin-2-yl)thiophen-2-yl)ethanol]: the “Ki Values” is listed as “A**, A*”. On the same count and under the same terms, the entry for `NS(=O)(=O)C/C=C/c1cccc(Nc2cc(C3CC3)[nH]n2)n1` [Compound 270, 3-[6-[(5-cyclopropyl-1H-pyrazol-3-yl)amino]-2-pyridyl]prop-2-ene-1-sulfonamide] is “B**, B*, B*, B*”. `C#Cc1cnc(N2CC[C@@H](NC(C)=O)C2)nc1Nc1cc(C2CC2)n[nH]1` [Compound 193, N-[1-[4-[(5-cyclopropyl-2H-pyrazol-3-yl)amino]-5-ethynyl-pyrimidin-2-yl]pyrrolidin-3-yl]acetamide]: the “Ki Values” is “B, C”. On the same count and under the same terms, the entry for `C#Cc1cnc(N2CC[C@H](NC(=O)OC(C)(C)C)C2)nc1Nc1cc(C2CC2)n[nH]1` [Compound 169, tert-butyl [[1-[4-[(5-cyclopropyl-2H-pyrazol-3-yl)amino]-5-ethynyl-pyrimidin-2-yl]pyrrolidin-3-yl]amino]formate] is “C, D”.

Staying with this test, now noted: 3 nM PknB, 6 uM GarA, 3 μM ATP, 30 min; competitive tight-binding fit; several symbols in a cell = repeat determinations; read-out: Ki Values.
As a reminder, the Ki is the dissociation constant of the complex between target and ligand, obtained from inhibition or displacement. Consider `C#Cc1cnc(-c2ccc(C(O)CCOC)s2)nc1Nc1cc(C2CC2)n[nH]1` (centres unmarked) [Compound 230, 1-[5-[4-[(5-cyclopropyl-2H-pyrazol-3-yl)amino]-5-ethynyl-pyrimidin-2-yl]-2-thienyl]-3-methoxy-propan-1-ol], for which the inhibition constant (Ki) was 50 to 100 nM.

Turning to `C#Cc1cnc(N2CCCN(C)CC2)nc1Nc1cc(C2CC2)[nH]n1` [Compound 248, N-(5-cyclopropyl-1H-pyrazol-3-yl)-5-ethynyl-2-(4-methyl-1,4-diazepan-1-yl)-pyrimidin-4-amine], the Ki was over 4000 nM. On the same count and under the same terms, the figure for `NS(=O)(=O)c1cccc(-c2nccc(Nc3cc(C4CC4)[nH]n3)n2)c1` [Compound 28, 3-[4-[(5-cyclopropyl-1H-pyrazol-3-yl)amino]pyrimidin-2-yl]benzenesulfonamide] is 10 to 50 nM; for `NS(=O)(=O)c1ccc(-c2ncc(Cl)c(Nc3cc[nH]n3)n2)s1` [Compound 221, 5-[5-chloro-4-(1H-pyrazol-3-ylamino)-pyrimidin-2-yl]thiophene-2-sulfonamide] it is 1 to 10 nM; for `CNS(=O)(=O)c1cccc(-c2ncc(Cl)c(Nc3cc(C4CC4)[nH]n3)n2)c1` [Compound 127, 3-[5-chloro-4-[(5-cyclopropyl-1H-pyrazol-3-yl)amino]-pyrimidin-2-yl]-N-methyl-benzenesulfonamide] it is 10 to 50 nM. The same measure, in the same setting: the figure for `NS(=O)(=O)c1ccc(-c2ncc(Cl)c(Nc3cc(C4CCCC4)[nH]n3)n2)s1` [Compound 235, 5-[5-chloro-4-[(5-cyclopentyl-1H-pyrazol-3-yl)amino]-pyrimidin-2-yl]thiophene-2-sulfonamide] is 10 to 50 nM; for `O=C(O)c1cccc(Nc2ncc(Cl)c(Nc3cc(C4CC4)[nH]n3)n2)c1` [Compound 73, 3-[[5-chloro-4-[(5-cyclopropyl-1H-pyrazol-3-yl)amino]-pyrimidin-2-yl]amino]benzoic acid] it is 100 to 500 nM. On the same count and under the same terms, as for `NS(=O)(=O)c1ccc(-c2ncc(Cl)c(Nc3cc(-c4cccs4)[nH]n3)n2)s1` [Compound 220, 5-[5-chloro-4-[[5-(2-thienyl)-1H-pyrazol-3-yl]amino]-pyrimidin-2-yl]thiophene-2-sulfonamide], the figure is over 4000 nM; as for `C#Cc1cnc(N2CCCCC2C(=O)OC)nc1Nc1cc(C2CC2)[nH]n1` (centres unmarked) [Compound 244, methyl 1-[4-[(5-cyclopropyl-1H-pyrazol-3-yl)amino]-5-ethynyl-pyrimidin-2-yl]piperidine-2-carboxylate], over 4000 nM.

Take `NC(=O)c1ccc(-c2ncc(Cl)c(Nc3cc(C4CC4)[nH]n3)n2)s1` [compound 131, 5-(5-Chloro-4-(5-cyclopropyl-1H-pyrazol-3-ylamino)pyrimidin-2-yl)thiophene-2-carboxamide]: the inhibition constant (Ki) lay within 1 to 10 nM. With `C#Cc1cnc(-c2ccc(S(=O)(=O)NCCNC(=O)C(C)(C)C)s2)nc1Nc1cc(C2CC2)n[nH]1` [Compound 183, N-(2-(5-(4-(5-cyclopropyl-1H-pyrazol-3-ylamino)-5-ethynylpyrimidin-2-yl)thiophene-2-sulfonamido)ethyl)pivalamide], the inhibitory constant (Ki) lay within 50 to 100 nM. `O=C1/C=C\c2c(n[nH]c2C2CC2)Nc2nc(ncc2Cl)-c2ccccc21` [Compound 277, chloro-cyclopropyl-BLAHone]: the inhibitory constant (Ki) is over 4000 nM. The same measure, in the same setting: as for `NS(=O)(=O)c1ccc(-c2ncc(Cl)c(Nc3cc(-c4ccccc4)[nH]n3)n2)s1` [Compound 234, 5-[5-chloro-4-[(5-phenyl-1H-pyrazol-3-yl)amino]-pyrimidin-2-yl]thiophene-2-sulfonamide], the figure is over 4000 nM; as for `CC(C)(C)NS(=O)(=O)c1cccc(-c2ncc(O)c(Nc3cc(C4CC4)n[nH]3)n2)c1` [Compound 102, N-tert-butyl-3-(4-(3-cyclopropyl-1H-pyrazol-5-ylamino)-5-hydroxypyrimidin-2-yl)benzenesulfonamide], 50 to 100 nM. The same measure, in the same setting: the figure for `C/C=C/c1cnc(-c2ccccc2)nc1Nc1cc(C2CC2)[nH]n1` [Compound 11, (E)-N-(5-cyclopropyl-1H-pyrazol-3-yl)-2-phenyl-5-(prop-1-enyl)pyrimidin-4-amine] is 100 to 500 nM; for `C#Cc1cnc(N2CCCNCC2)nc1Nc1cc(C2CC2)n[nH]1` [Compound 174, N-(5-cyclopropyl-2H-pyrazol-3-yl)-2-(1,4-diazepan-1-yl)-5-ethynyl-pyrimidin-4-amine] it is 2000 to 4000 nM.

For `CN(C)c1cc(Nc2cc(C3CC3)n[nH]2)nc(-c2ccc(S(N)(=O)=O)s2)n1` [Compound 282, 5-[4-[(5-cyclopropyl-2H-pyrazol-3-yl)amino]-6-dimethylamino-pyrimidin-2-yl]thiophene-2-sulfonamide], the Ki fell in the range of 2000 to 4000 nM. The same measure, in the same setting: the figure for `NS(=O)(=O)c1ccccc1Nc1nccc(Nc2cc(C3CC3)[nH]n2)n1` [Compound 120, 2-[[4-[(5-cyclopropyl-1H-pyrazol-3-yl)amino]pyrimidin-2-yl]amino]benzenesulfonamide] is 100 to 500 nM; for `C/C=C\c1cnc(-c2ccc(S(N)(=O)=O)s2)nc1Nc1cc(C2CC2)[nH]n1` [Compound 207, (Z)-5-(4-(5-cyclopropyl-1H-pyrazol-3-ylamino)-5-(prop-1-enyl)pyrimidin-2-yl)thiophene-2-sulfonamide] it is 1 to 10 nM.

Take `CC(C)(C)NS(=O)(=O)C/C=C/c1nccc(Nc2cc(C3CC3)[nH]n2)n1` [Compound 56, 3-[4-[(5-cyclopropyl-1H-pyrazol-3-yl)amino]pyrimidin-2-yl]-N-tert-butyl-prop-2-ene-1-sulfonamide]: the Ki lay in the range of 1000 to 2000 nM.

Consider `COc1ccc(-c2ncc(Cl)c(Nc3cc(C4CC4)[nH]n3)n2)cc1S(N)(=O)=O` [Compound 161, 5-[5-chloro-4-[(5-cyclopropyl-1H-pyrazol-3-yl)amino]-pyrimidin-2-yl]-2-methoxy-benzenesulfonamide], for which the Ki is 50 to 100 nM.

Regarding `C#Cc1cnc(-c2ccc(S(=O)(=O)CCCNC(C)=O)s2)nc1Nc1cc(C2CC2)[nH]n1` [Compound 229, N-(3-(5-(4-(5-cyclopropyl-1H-pyrazol-3-ylamino)-5-ethynylpyrimidin-2-yl)thiophen-2-ylsulfonyl)propyl)acetamide], the Ki is 10 to 50 nM.
